Values after ≈ are worked out from the molar mass of the structure shown. Read-outs that look alike come from different tables or passages of the source.
Key:
[1] = physchem; type: physicochemical
Experimental: The half-life of the compounds was measured in PBS (pH 6.5), simulated gastric fluid (SGF) with pepsin, and SGF without pepsin.

[2] = physchem; type: physicochemical; conditions: FaSSIF, RT, 30 mM DMSO stock, value close to or above 300 μM may mean solubility at or above 300 μM
Experimental: Solubility measurements were taken according to the steps as followed:
2. Preparation of Stock Solution: The stock solution of test compounds was prepared in dimethyl sulfoxide (DMSO) at the concentration of 30 mM. The stock solution of control compound was prepared in DMSO at the concentration of 30 mM. Diclofenac sodium was used as positive control in the assay.
3. Procedures for Solubility Determination: 10 μL stock solution of each compound was placed in order into their proper 96-well rack, followed by adding 990 μL of FaSSIF into each vial of the cap-less Solubility Sample plate. This study was performed in duplicate. One stir stick was added to each vial and then vials were sealed using a molded PTDE/SIL 96-Well Plate Cover. The Solubility Sample plate was transferred to the Thermomixer Comfort plate shaker and incubated at RT for 2 hours with shaking at 1100 rpm. After 2 hours incubation, stir sticks were removed using a big magnet and all samples from the Solubility Sample plate were transferred into the filter plate. All the samples were filtered by using the Vacuum Manifold. An aliquot of 10 μL of the filtered samples were diluted with 980 μL of methanol and 10 μL of DMSO. The dilution factor might be changed according to the solubility value and the LC/MS signal response.
5. Sample Analysis: Samples were analyzed by LC-MS/MS.
[formula] • with DF as the dilution factor.

[3] = in vitro; type: in vitro ADME; conditions: for Remaining Percentage / remaining at 0.25 h / remaining at 0.5 h / remaining at 1 h / remaining at 2 h: mouse plasma; for Remaining Percentage: 0 min; for remaining at 0.25 h: 15 min; for remaining at 0.25 h / remaining at 0.5 h / remaining at 1 h / remaining at 2 h: read-out: Remaining Percentage; for remaining at 0.5 h: 30 min; for remaining at 1 h: 60 min; for remaining at 2 h: 120 min; for half-life: mouse, plasma
[4] = system: serotonin receptors; conditions: cited from earlier work
[5] = PBS (pH 6.5), 30 min, read-out: Remaining Percentage
[6] = PBS (pH 6.5), 60 min, read-out: Remaining Percentage
[7] = PBS (pH 6.5), 120 min, read-out: Remaining Percentage
[8] = PBS (pH 6.5), 240 min, read-out: Remaining Percentage
[9] = PBS (pH 6.5), SGF with pepsin, SGF without pepsin
[10] = SGF with pepsin, 30 min, read-out: Remaining Percentage
[11] = SGF with pepsin, 60 min, read-out: Remaining Percentage
[12] = SGF with pepsin, 120 min, read-out: Remaining Percentage
[13] = SGF with pepsin, 240 min, read-out: Remaining Percentage
[14] = SGF without pepsin, 30 min, read-out: Remaining Percentage
[15] = SGF without pepsin, 60 min, read-out: Remaining Percentage
[16] = SGF without pepsin, 120 min, read-out: Remaining Percentage
[17] = SGF without pepsin, 240 min, read-out: Remaining Percentage
[18] = SGF without pepsin, if calculated T1/2 < 0, reported as 9999 min, read-out: T1/2
[19] = only time points within the initial rate used where fast then slow disappearance, read-out: T1/2
[20] = text statement of Table 4 value, read-out: half-life in mouse plasma
[21] = SGF with pepsin, if calculated T1/2 < 0, reported as 9999 min, read-out: T1/2

Row | Compound | Remaining Percentage ([1]; SGF with pepsin, 0 min) [%] | remaining at 0.5 h [1, 10] [%] | remaining at 1 h [1, 11] [%] | remaining at 2 h [1, 12] [%] | remaining at 4 h [1, 13] [%] | Remaining Percentage ([1]; SGF without pepsin, 0 min) [%] | remaining at 0.5 h [1, 14] [%] | remaining at 1 h [1, 15] [%] | remaining at 2 h [1, 16] [%] | remaining at 4 h [1, 17] [%] | solubility kinetic at 2 h [2] [µM] | Remaining Percentage [3] [%] | remaining at 0.25 h [3] [%] | remaining at 0.5 h [3] [%] | remaining at 1 h [3] [%] | remaining at 2 h [3] [%] | half-life [3, 19] [min] | activity at select serotonin receptors [4] | other results
1 | O=C(O)CCCc1ccc(N(CCCl)CCCl)cc1 [Chlorambucil, reference compound] |  |  |  |  |  |  |  |  |  |  |  |  |  |  |  |  |  |  | Remaining Percentage ([1]; pH 6.5): 100.00%; half-life ([1]; pbs, pH 6.5): 0.694 h; remaining at 0.5 h ([1]; pbs, pH 6.5): 59.4%; remaining at 1 h ([1]; pbs, pH 6.5): 37.1%; remaining at 2 h ([1]; pbs, pH 6.5): 13.6%; remaining at 4 h ([1]; pbs, pH 6.5): 1.83%
2 | CN(C)C(=O)OC[N+](C)(C)CCc1c[nH]c2ccccc12 [Compound 1, N-(((dimethylcarbamoyl)oxy)methyl)-2-(1H-indol-3-yl)-N,N-dimethylethan-1-aminium] | 100.00 | 101 | 100 | 97.2 | 108 | 100.00 | 105 | 100 | 104 | 100 | 290 | 100.00 | 97.5 | 92.6 | 90.2 | 58.3 | 156 |  | Remaining Percentage ([1]; PBS (pH 6.5), 0 min): 100.00%; remaining at 0.5 h [1, 5]: 97.7%; remaining at 1 h [1, 6]: 108%; remaining at 2 h [1, 7]: 107%; remaining at 4 h [1, 8]: 108%; Stability in the environment of a stomach and in the presence of pepsin [1, 9]: does not degrade in the environment of a stomach nor in the presence of pepsin; half-life [1, 18]: 261 h; half-life [3, 20]: 155 min
3 | CC(C)(C)C(=O)OC[N+](C)(C)CCc1c[nH]c2ccccc12 [Compound 2, 2-(1H-indol-3-y1)-N,N-dimethy1-N-((pivaloyloxy)methyl)ethan-1-aminium] | 100.00 | 94.3 | 104 | 96.6 | 96.1 | 100.00 | 90.7 | 97.3 | 104 | 104 | 314 | 100.00 | 24.4 | 7.66 | 1.13 | 0 | 9.41 |  | Remaining Percentage ([1]; PBS (pH 6.5), 0 min): 100.00%; remaining at 0.5 h [1, 5]: 97.4%; remaining at 1 h [1, 6]: 101%; remaining at 2 h [1, 7]: 98.3%; remaining at 4 h [1, 8]: 95.3%; Stability in the environment of a stomach and in the presence of pepsin [1, 9]: does not degrade in the environment of a stomach nor in the presence of pepsin; half-life ([1]; PBS (pH 6.5), if calculated T1/2 < 0, reported as 9999 min, read-out: T1/2): 63.2 h; half-life [1, 21]: 88.8 h; half-life [3, 20]: 9.4 min
4 | COc1ccc2[nH]cc(CCN(C)C)c2c1 [Compound 5-MeO-DMT, 5-methoxy-DMT] |  |  |  |  |  |  |  |  |  |  |  |  |  |  |  |  |  |  | activity at select serotonin receptors ([4]; bind select serotonin receptors in the active state): agonists or partial agonists
5 | CN(C)CCc1c[nH]c2ccccc12 [DMT, N, N-dimethyltryptamine] |  |  |  |  |  |  |  |  |  |  |  |  |  |  |  |  |  | agonists or partial agonists | 
6 | O=C(O)Cc1ccccc1Nc1c(Cl)cccc1Cl [Diclofenac, reference compound] |  |  |  |  |  |  |  |  |  |  | 276 (≈ 81.7 µg/mL) |  |  |  |  |  |  |  | 
7 | CC[C@H]1OC(=O)[C@H](C)[C@@H](O[C@H]2C[C@@](C)(OC)[C@@H](O)[C@H](C)O2)[C@H](C)[C@@H](O[C@@H]2O[C@H](C)C[C@H](N(C)C)[C@H]2O)[C@](C)(O)C[C@@H](C)C(=O)[C@H](C)[C@@H](O)[C@]1(C)O [Erythromycin, reference compound] | 100.00 | 52.6 | 30.5 | 9.74 | 1 | 100.00 | 54.5 | 29.1 | 9.44 | 1.05 |  |  |  |  |  |  |  |  | half-life [1, 21]: 0.6 h; half-life [1, 18]: 0.61 h
8 | CC(C)[N+](C)(CCOC(=O)C1c2ccccc2Oc2ccccc21)C(C)C [Propantheline, reference compound] |  |  |  |  |  |  |  |  |  |  |  | 100.00 | 86 | 67.2 | 35 | 8.48 | 32.8 |  | 
9 | CN(C)CCc1c[nH]c2cccc(O)c12 [psilocin, 4-hydroxy-DMT] |  |  |  |  |  |  |  |  |  |  |  |  |  |  |  |  |  | agonists or partial agonists | 
10 | CN(C)CCc1c[nH]c2cccc(OP(=O)(O)O)c12 [psilocybin] |  |  |  |  |  |  |  |  |  |  |  |  |  |  |  |  |  | agonists or partial agonists | 
